From patent US20230130403A1, “METHODS OF TREATMENT WITH S1P RECEPTOR MODULATORS” (PRIOTHERA SAS, priority 2021, published 2023)

Key:
blood pressure = assay: Blood pressure in dogs; format: in vivo, dog
Description: (§1) Based on the available in vitro and in vivo data, except for the potential to cause a negative chronotropic effect and some mild increase in blood pressure, there is no indication that KRP203 would cause arrhythmia or QT prolongation in man.

[1] = system: bronchoconstrictor response induced by challenge agents; assay: Safety pharmacology: bronchoconstrictor response in rats; format: in vivo, rat; details: rats pre-treated with 3 mg/kg
Description: as §1

mice [2] = assay: Acute toxicity in mice; format: in vivo
[3] = system: peripheral lymphocyte counts; assay: Recovery of absolute lymphocyte counts after S1P modulator dosing in healthy volunteers; format: in vivo, human; details: single 1 mg FTY720, BAF312 multiple doses for 28 days, single 3 mg KRP203
Method: Mocravimod is particularly preferred. […] A measurable parameter that determines maintenance of the mode of action, i.e., sequestering of lymphocytes in secondary lymphoid organs and bone marrow, is reduction of peripheral lymphocyte counts. Recovery of absolute lymphocyte counts to 80% of normal counts after a single 1 mg dose of FTY720, multiple dose applications of BAF312 for 28 days, or a single 3 mg dose of KRP203 was reached after 8, 7 and more than 10 days, respectively.

[4] = system: allogeneic-stimulated T cell proliferation; assay: Mixed lymphocyte reactions (MLR); format: cell-based; details: therapeutic concentrations in vitro
Description: (§2) KRP203 reduces lymphocyte counts in peripheral blood by more than 80%.

micronucleus = assay: In vivo micronucleus study in mice; set-up: species or system mouse
eye irritation = assay: Eye irritation; details: in vivo
[5] = molecular target: CYP3A4 via the human PXR receptor (Homo sapiens, UniProt O75469); assay: CYP3A4 induction via PXR; format: in vitro ADME
QT prolongation = QT prolongation in telemetered dogs; format: in vivo, dog
Description: as §1

[6] = system: contact sensitizing potential; assay: Contact sensitization; details: in vivo
rats [7] = assay: Repeat-dose toxicity studies in rats; format: in vivo
Description: (§3) Transitory activation of phagocytic cells and increased secretion of soluble markers by these cells is considered a main contributing factor to smooth muscle hypertrophy/hyperplasia.

bacterial mutation = assay: In vitro genotoxicity: bacterial mutation; format: cell-based
[8] = system: neuropharmacological effects; assay: Safety pharmacology: neuropharmacological effects in rats; format: in vivo, rat; details: doses up to 2000 mg/kg, except some piloerection
hERG channels = hERG channels (Homo sapiens, UniProt Q12809); assay: hERG channel inhibition in vitro; format: biochemical; details: between 0.5 and 10 μM
Description: as §1

[9] = system: human cytochrome P450 isoenzymes; assay: Inhibition of cytochrome P450 isoenzymes in vitro; format: in vitro ADME
Method: The in vivo ratio of phosphorylated KRP203 to KRP203 in plasma was up to 45 in rat. As the metabolic activities on KRP203 in human blood and hepatocytes were lower than those of other species, the metabolic clearance of KRP203 in man is expected be lower than that in rat and dog. […] KRP230 formed low amounts of covalent drug-protein adducts in human hepatocytes in vitro. Due to the low levels detected ([…] at 3 hours) in-vitro adduct formation is unlikely to be associated with clinical relevant findings at low dose levels (e.g. below 10 mg).
The weak inhibitory effect of ciclosporin on hepatic CYP3A4 is unlikely to relevantly impact the PK of KRP203.

rabbit skin = assay: Skin irritation; format: in vivo
[10] = system: hematological cytotoxicity; assay: Hematological cytotoxicity in vitro; format: cell-based; details: therapeutic concentrations in vitro
Description: as §2

chromosome aberration = assay: In vitro genotoxicity: chromosome aberration; format: cell-based
[11] = rat, in vivo
dogs [12] = assay: Acute toxicity in dogs; format: in vivo, dog
Method: No mortality was seen following single oral dosing in dogs up to 2000 mg/kg.

[13] = system: pulmonary endothelial barrier; assay: Pulmonary endothelial barrier after single oral dose; format: in vivo
Description: as §1

rats [14] = assay: Acute toxicity in rats; format: in vivo
[15] = dog, in vivo
dogs [16] = assay: Repeat-dose toxicity studies in dogs; format: in vivo
Description: as §3

mice [17] = assay: Repeat-dose toxicity studies in mice; details: mouse, in vivo
Method: (§4) The kidney was a target organ of toxicity in mice only and only in a 2-week study at doses ≥45 mg/kg.
(§5) Kidney impairment was most likely the primary cause of death/moribundity seen in this study.

[18] = Repeat-dose toxicity studies in mice; details: in vivo; 13-week mouse study, 20 mg/kg; read-out: systemic exposure (AUC0-24 h)
Method: as §4, §5

heart rate = assay: Heart rate in isolated rabbit heart or guinea pig
Description: as §1

[19] = system: lymphocyte counts in peripheral blood; assay: Reduction of lymphocyte counts in peripheral blood; details: in vivo
Description: as §2

liver = assay: Genomic profiling of the liver in a 2-week exploratory toxicity study in rats; format: in vivo, rat
[20] = system: healthy volunteers and patients (ulcerative colitis, subacute cutaneous lupus erythematosus, Crohn's disease); assay: Placebo-controlled clinical trials of KRP203 in healthy volunteers and patients; format: in vivo, human
Method: The clinical experience with mocravimod includes single doses up to 40 mg in healthy volunteers and multiple doses up to 3 mg/day in healthy volunteers and patients. […] In the phase […] study, mocravimod was administered for up to around 3 months in patients with several different hematologic malignancies receiving allogeneic HSCT. […] However, patient numbers were low and efficacy results warrant more data in a more homogeneous patient population. To gather more data on both doses, this phase IIb study will investigate mocravimod at two different dose levels, a daily dose of 1 mg as well as of 3 mg.

Sequence of hERG channels (Q12809 whole entry): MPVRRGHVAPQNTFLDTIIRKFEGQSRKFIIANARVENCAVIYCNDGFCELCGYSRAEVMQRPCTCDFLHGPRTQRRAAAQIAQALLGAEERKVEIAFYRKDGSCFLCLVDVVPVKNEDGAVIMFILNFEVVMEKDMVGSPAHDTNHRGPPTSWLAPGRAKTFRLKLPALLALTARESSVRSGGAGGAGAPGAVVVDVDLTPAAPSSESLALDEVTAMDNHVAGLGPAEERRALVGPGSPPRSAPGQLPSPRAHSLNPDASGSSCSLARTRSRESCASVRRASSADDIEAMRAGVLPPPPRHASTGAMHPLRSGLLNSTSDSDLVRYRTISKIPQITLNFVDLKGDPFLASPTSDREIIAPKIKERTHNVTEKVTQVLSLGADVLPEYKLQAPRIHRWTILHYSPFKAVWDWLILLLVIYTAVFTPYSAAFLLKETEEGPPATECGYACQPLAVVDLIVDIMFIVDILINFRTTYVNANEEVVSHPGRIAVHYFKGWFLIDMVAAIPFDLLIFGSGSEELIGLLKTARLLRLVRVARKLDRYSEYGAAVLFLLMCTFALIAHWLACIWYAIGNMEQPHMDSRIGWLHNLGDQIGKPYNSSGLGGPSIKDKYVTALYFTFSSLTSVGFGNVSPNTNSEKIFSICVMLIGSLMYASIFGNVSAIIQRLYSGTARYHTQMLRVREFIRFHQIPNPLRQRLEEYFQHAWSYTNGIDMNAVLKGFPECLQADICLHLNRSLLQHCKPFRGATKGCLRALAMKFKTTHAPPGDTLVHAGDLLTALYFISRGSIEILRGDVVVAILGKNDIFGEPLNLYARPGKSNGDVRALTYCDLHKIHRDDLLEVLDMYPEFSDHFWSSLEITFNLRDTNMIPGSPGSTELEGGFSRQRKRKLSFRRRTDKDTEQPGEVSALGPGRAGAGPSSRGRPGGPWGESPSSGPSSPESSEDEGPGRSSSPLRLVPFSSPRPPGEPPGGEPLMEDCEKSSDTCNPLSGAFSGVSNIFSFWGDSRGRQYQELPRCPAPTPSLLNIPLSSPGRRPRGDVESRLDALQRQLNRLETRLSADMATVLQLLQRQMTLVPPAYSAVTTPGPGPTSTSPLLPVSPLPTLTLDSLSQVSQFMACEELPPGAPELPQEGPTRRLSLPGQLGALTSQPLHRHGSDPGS
Sequence of CYP3A4 via the human PXR receptor (O75469 whole entry): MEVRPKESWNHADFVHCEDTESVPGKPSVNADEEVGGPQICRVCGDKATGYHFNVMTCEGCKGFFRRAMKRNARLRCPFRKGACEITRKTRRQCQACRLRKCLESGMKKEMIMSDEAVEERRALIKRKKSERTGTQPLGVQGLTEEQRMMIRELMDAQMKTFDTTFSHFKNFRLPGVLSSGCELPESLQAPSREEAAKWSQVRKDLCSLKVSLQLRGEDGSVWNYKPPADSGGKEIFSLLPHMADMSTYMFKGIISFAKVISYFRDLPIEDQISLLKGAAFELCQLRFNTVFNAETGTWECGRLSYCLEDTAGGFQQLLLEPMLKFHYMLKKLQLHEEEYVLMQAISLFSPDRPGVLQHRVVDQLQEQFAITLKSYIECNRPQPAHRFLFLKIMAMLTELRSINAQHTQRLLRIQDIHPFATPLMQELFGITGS

In the case of `NC(CO)(CO)CCc1ccc(Sc2cccc(OCc3ccccc3)c2)cc1Cl` [KRP203, 2-amino-2-[4-(3-benzyloxyphenylthio)-2-chlorophenyl] ethyl-propane-1,3-diol], the “potential to increase blood pressure, extrapolated exposure” value (blood pressure) is reported as 20.3 µM, the “effects on bronchoconstrictor response induced by challenge agents” value [1] is reported as “no significant effects” and the “intravenous dose producing lethality” value (mice [2]) is reported as “above 50 mg/kg”. For the same compound, the “Recovery of absolute lymphocyte counts to 80% of normal counts” value [3] was “more than 10 days”, the “inhibition of allogeneic-stimulated T cell proliferation” value [4] was “does not inhibit” and the genotoxic potential (micronucleus) was “no evidence for a genotoxic potential”. The eye irritation (eye irritation) was “marked eye irritation”, the “no significant induction of CYP3A4 via the human PXR receptor up to concentration” value [5] was no more than 6.15 µM and the QT prolongation (QT prolongation) was “No indication for QT prolongation”. The contact sensitizing potential [6] was “does not have a contact sensitizing potential”, the “local tolerability in the gastro-intestinal tract” value (rats [7]; oral dosing in rats or dogs up to 26 or 13 weeks) was “no indication for impaired local tolerability” and the hepatic effects (rats [7]; rats and mice, not in dogs) was “mild and did only occur at high dose levels”. The “no mortality up to daily dose” value (rats [7]; rats, up to 26-week) was no more than 50 mg/kg, the genotoxic potential (bacterial mutation) was “no evidence for a genotoxic potential” and the neuropharmacological effects [8] was “no adverse neuropharmacological effects”. The “inhibition of hERG channels” value (hERG channels) was “slight inhibitory potential”, the “effect on cytochromes P450 enzymes and transporters” value [9] was “lack of effect” and the “potential in inhibiting the activity of human cytochrome P450 isoenzymes” value ([9]; in vitro tests) was “did not show relevant potential”. For the same compound, the skin irritation (rabbit skin) was “not irritating”, the exhibits hematological cytotoxicity [10] was “does not” and the genotoxic potential (chromosome aberration) was “no evidence for a genotoxic potential”. For the same compound, the “increase of exposure at the end of the 13-week treatment compared to single dose” value ([11]; both, 13 weeks) was 2-5 fold, the “proportionality between exposure and dose” value [11] was “apparent proportionality between exposure and dose” and the “no mortality following single oral dosing up to” value (dogs [12]) was “up to 2000 mg/kg”. The “effect on pulmonary endothelial barrier” value [13] was “mildly decreased pulmonary endothelial barrier”, the “intravenous dose producing lethality” value (rats [14]) was “above 50 mg/kg” and the “oral dose producing lethality” value (rats [14]) was 1000 mg/kg. The “accumulation after repeated dosing (4 and 13 weeks)” value [15] was “no evidence of accumulation”, the gastro-intestinal findings (dogs [16]; 26- and 52-week dog toxicity studies) was “gastro-intestinal tract disturbance with soft/mucoid stools and diarrhea occurred in males only at the high dose level” and the “no mortality up to daily dose” value (dogs [16]; dogs, up to 52-week) was no more than 15 mg/kg. For the same compound, the “doses with kidney toxicity” value (mice [17]; both, 2 weeks) was no less than 45 mg/kg, the doses with mortality (mice [17]; both, 2 weeks) was no less than 45 mg/kg/day and the “no kidney changes up to highest dose level” value (mice [17]; 13 weeks) was no more than 20 mg/kg. The AUC0-24 [18] was roughly 7250 ng·h/mL, the “potential to decrease heart rate, extrapolated exposure” value (heart rate) was 20.1 µM and the “reduction of lymphocyte counts in peripheral blood” value [19] was “more than 80%”. The “hepatotoxicity-related changes in genomic profiling of the liver” value (liver) was “did not indicate any hepatotoxicity-related changes” and the tolerability [20] was “well tolerated”.
